Tests used:
FAM-Aβ42 = molecular target: T1, FAM-Aβ42 (Homo sapiens, UniProt P05067); experiment: SDS-PAGE of copper-induced crosslinking of FAM-Aβ42; assay type: biochemical; conditions: for intensity of monomeric Aβ bands relative to non-treated group: 4 hours incubation with copper sulfate and vitamin C
T1 construct: a Aβ42 labeled with fluorescent dye (FAM) (FAM-Aβ42); purchased American Peptide Company
Method: (§1) Samples were separated on 4-20% gradient Tris-glycine mini gels (Invitrogen). For FAM-Aβ42 gels, the images were acquired on IVIS®Spectrum (Caliper, Perkin Elmer) with excitation=465 nm, and emission=520 nm. For native Aβ42 gels, the gel was transferred to a nitrocellulose membrane in a cooled transferring buffer and the membrane was blocked at room temperature for 2 hours. After blocking, the membrane was incubated in a solution of 6E10 anti-Aβ primary antibody (1:2000 dilution, Covance, Dedham, Mass.) at 4° C. overnight. After washing with TBS buffer, the membrane was incubated with the secondary antibody for 2 hours at room temperature. Western Breeze Chemiluminescent kit (Invitrogen) was used to visualize the bands. The images were acquired using IVIS®Spectrum (Caliper, Perkin Elmer) using bioluminescence imaging setting. SeeBlue®plus2 (Invitrogen)(4-250KD) was used as a molecular weight marker.
(§2) All the samples used for SDS-PAGE gel and Western blot were prepared using the same procedure as described below. A 5 μL HFIP (hexafluoroisopropanol) solution (25 μM) of native Aβ42 or FAM-Aβ42 was added to a 1.5 mL eppendorf tube. After evaporating the organic solvent under vacuum, a 5 μL at DMSO or DMSO solution of CRANAD-17 (100 μM) was added to the tube, followed by the addition of 15 μL of Vitamin C solution in PBS (33.3 μM) and 5 μL of copper sulfate solution in PBS (12.5 μM). The resulting mixture was incubated at 37° C. for 4 hours, and was then subjected to gel electrophoresis. For dose dependency study, 5 μL of DMSO solution of different CRANAD-17 concentrations (25, 125, 250 μM) was added to obtain CRANAD-17/Aβ42 ratio equals 1:1, 5:1, and 10:1.

Aβ42 [1] = molecular target: T2, Aβ42 (Homo sapiens, UniProt P05067); experiment: Western blot of copper-induced crosslinking of native Aβ42; assay type: biochemical; conditions: for attenuation of copper-induced crosslinking of native Aβ42: 4 hours incubation; for high molecular weight species on gel: copper treated
T2 construct: Synthetic amyloid-β peptide (1-40/42) was purchased from rPeptide; purchased rPeptide (Bogart, Ga.)
Method: as §1, §2
To this end, human Aβ42 was incubated with curcumin, CRANAD-3 and CRANAD-17 under the same conditions as above.

human Aβ40 = molecular target: T3, human Aβ40 (Homo sapiens, UniProt P05067); experiment: Fluorescence spectra recording with Aβ40; assay type: binding; conditions: 500 nM compound, 250 nM Aβ
T3 construct: Synthetic amyloid-β peptide (1-40/42) was purchased from rPeptide; purchased rPeptide (Bogart, Ga.)
Method: (§3) The procedure described below was used for all experiments. To test the interactions of CRANAD-17 with Aβ species including Aβ42 monomers, Aβ40 monomers and [H13R]Aβ40 monomers, we utilize the following protocol. Step 1: 1.0 mL of PBS buffer was added to a quartz curvet as a blank control and its fluorescence was recorded with the same parameters as for CRANAD-17; Step 2: fluorescence of a CRANAD-17 solution (1 mL, 500 nM) was recorded with excitation at 480 nm and emission from 500 nm to 900 nm; Step 3: to the above CRANAD-17 solution, 10 μL of Aβ species (25 μM) was added to make the final Aβ species concentration of 250 nM, and the fluorescence spectrum from this solution was recorded. The final spectra from steps 2 and 3 were corrected using the blank control from step 1.

[H13R]Aβ40 = molecular target: T4, [H13R]Aβ40 (Homo sapiens, UniProt P05067, H684R); experiment: Fluorescence spectra recording with [H13R]Aβ40; assay type: binding
T4 construct: [H13R]Aβ40 monomers; purchased American Peptide Company
Method: as §3
Conceivably, it is possible that the pyridyl ring on the other end of CRANAD-3 has a specific interaction with H13 and H14 of Aβ, which have aromatic imidazolium rings and are at the equal distance from K16 as VFF. To this end, the fluorescence intensities of CRANAD-3 with Aβ and H13R substituted Aβ ([H13R]Aβ), in which H13 is replaced by arginine (R) was compared.

Aβ42 [2] = molecular target: T2, Aβ42; experiment: TEM measurement of Aβ42 aggregation; assay type: biochemical; conditions: 1.0 μM compound, 250 nM Aβ42, 37° C., 24 hours
Method: A 250 nM of Aβ42 in PBS solution was placed was at 37° C. for 24 hours. Next, 5 μL of this solution was dropped onto a Formvar coated TEM grid, followed by the addition of 2 μL of PTA contrast solution. After one minute, the liquid on the grid was carefully dried with a corner of a filter paper, and the resulting grid was further dried in the air for 2-5 minute. The TEM images were taken with JEOL 1011 electron microscope. Similar procedure was used for the incubated solution of CRANAD-l7 (1.0 μM) and Aβ42 (250 nM).

Aβ42 [3] = molecular target: T2, Aβ42; experiment: Thioflavin T test of Aβ42 aggregation; assay type: biochemical; conditions: 10 μM compound, 37° C., 24 hours
Method: A 2.5 μM of Aβ42 solution in PBS was placed at 37° C. for 24 hours., and 10 μL of this solution was added to 1.0 ml PBS solution. The resulting solution was and then subjected to fluorescence spectrum recording with excitation=440 nm, and emission=470-800 nm (baseline recording). To this solution, 10 μL of thioflavin T (2.5 μM in PBS) was added and the spectrum was recorded. The quantification was conducted at λem=500 nm for Thioflavin T reading by subtracting the baseline reading. For CRANAD-17 (10 μM) incubation, the quantification was conducted by subtracting the readings at baseline and CRANAD-17 at λem=500 nm.

APP/PS1 mice = experiment: In vivo six-month treatment of APP/PS1 mice (NIR imaging, ELISA, plaque counting); conditions: 4 mg/kg i.p. twice a week, 6-month treatment
Method: Transgenic APP-PS1 mice and age-matched wild type mice were purchased from Jackson Laboratory. In vivo NIR imaging was recorded using the IVIS° Spectrum.
Ten APP/PS 1 mice (4-month) were divided into 2 groups (n=5/group), and one group was i.p. injected with 100 microliter of CRANAD-17 (4 mg/kg, formulated withl0% cremophor, 10% DMSO and 80% PBS) twice a week. After 6-month treatment, the two groups were subjected to NIR imaging with CRANAD-3 (ex=605, em=680 nm), and then were sacrificed. The brain of each mouse was taken, and dissected in two halves. One half brain was subjected to extraction and then to ELISA analysis. The other half brain was dissected into 25 micron slices, and then the slices were stained with Thioflavin S. Eight slices from hippocampus area of each mouse were subjected to amyloid beta plaque counting by ImageJ.

Molecule	attenuation of copper-induced crosslinking (FAM-Aβ42; FAM-Aβ42/compound 1:1, 1:5, 1:10)	intensity of monomeric Aβ bands relative to non-treated group (FAM-Aβ42) [fold]	attenuation of copper-induced crosslinking of native Aβ42 (Aβ42 [1]; Western blot)	high molecular weight species on gel (Aβ42 [1])	fluorescence property changes upon mixing with Aβ (human Aβ40)	blue-shift with [H13R]Aβ ([H13R]Aβ40)	fluorescence intensity with [H13R]Aβ compared to native Aβ ([H13R]Aβ40)	attenuation effect compared to curcumin and CRANAD-3 (Aβ42 [1]; Western blot)	visible fibrils by TEM compared to control (Aβ42 treated with copper only) (Aβ42 [2])	Thioflavin T fluorescence signal (Aβ42 [3])	ELISA analysis of brain extraction, reduction (APP/PS1 mice) [%]	lower NIR signals than non-treated group (imaging with CRANAD-3) (APP/PS1 mice) [%]	plaque counting, reduction (APP/PS1 mice; hippocampus slices, Thioflavin S) [%]
c1ccc(-n2ccnc2)cc1 [4-(1H-imidazol-1-yl)benzene]	relatively small compared to CRANAD-17												
COc1cc(/C=C/C(=O)CC(=O)/C=C/c2ccc(O)c(OC)c2)ccc1O [curcumin]		1.07	could attenuate crosslinking	no significant amount of high molecular weight species									
CRANAD-17		1.92	could attenuate crosslinking	a certain amount of high molecular weight oligomeric species	intensity increase and blue-shift	no significant blue-shift	significantly lower fluorescence intensity	significantly higher attenuation effect	less visible fibrils	lower fluorescence signal	36	25	78

From patent US9738623B2, “Curcumin analogs” (The General Hospital Corporation, priority 2012, dated 2017)
